Source: publication PMC6471485, “Selective Inhibitors of a Human Prolyl Hydroxylase (OGFOD1) Involved in Ribosomal Decoding” (Chemistry (Weinheim an Der Bergstrasse, Germany), 2019)
Entries after “also recorded” stand apart in the source; their conditions may differ.

Columns and labels:
[1] = test system: MDR1-MDCK; experiment: MDR1-MDCK in vitro permeability assay (Cyprotex); type: in vitro ADME; details: for cell permeability, in words: MDR1-MDCK; for predicted blood-brain barrier permeability, in words: prediction from MDR1-MDCK assay
Description: (§1) supplemented with 80 µM Zn(II), 70 µM of inhibitor, all in 50 mM Tris-d11, pH 7.5, 10 % D2O, […]
(§2) Cell Culture and Immunoblotting
(§3) HeLa cells were cultured in DMEM media supplemented with 10 % fetal bovine serum, 4 mM L-glutamine, 100 U/mL penicillin, and 100 µg/mL streptomycin. Cells were treated with the indicated compounds, prepared in 1% DMSO, for 5 h. Following a PBS buffer rinse, cells were lysed in urea/SDS buffer supplemented with 1 mM dithiothreitol. Cell extracts were analyzed by SDS-PAGE, electroblotted onto PVDF membranes (Millipore) and probed with anti-HIF-1α antibody (clone 54, BD Transduction Laboratories) at 1:1000 dilution for 1 h at room temperature. The HRP-conjugated secondary antibody was then applied at room temperature for 1 h. Target proteins were detected with SuperSignal Chemiluminescent […]
(§4) ADMET in vitro Predictors
(§5) S9 liver microsome stability assays and MDCK-MDR1 efflux assays were carried out for CCT3 and CCT4 by Cyprotex (UK). Additional details are provided later in the Supporting […]
(§6) The solubility and metabolic stability of CCT3 and CCT4 was preliminarily evaluated using a S9 liver microsome assay (Cyprotex, UK). According to the assay, CCT3 and CCT4 had […]
(§7) respectively, and are thus classified as having low clearance (< 8.6 µL/min/mg protein).
(§8) The cell permeability of CCT3 and CCT4 were evaluated using an MDR1-MDCK in vitro […]
(§9) able to penetrate the blood-brain barrier. The permeability coefficients were determined to be

[2] = MDR1-MDCK in vitro permeability assay (Cyprotex); type: in vitro ADME; details: dog; MDR1-MDCK; read-out: permeability coefficient
Description: as §1, §2, §3, §4, §5, §6, §7, §8, §9

[3] = target: T1, OGFOD1 (Homo sapiens, UniProt Q8N543); experiment: CPMG-edited 1H NMR binding experiment with OGFOD1; details: 30 µM inhibitor, 30 µM OGFOD1
T1 sequence (Q8N543 1-542): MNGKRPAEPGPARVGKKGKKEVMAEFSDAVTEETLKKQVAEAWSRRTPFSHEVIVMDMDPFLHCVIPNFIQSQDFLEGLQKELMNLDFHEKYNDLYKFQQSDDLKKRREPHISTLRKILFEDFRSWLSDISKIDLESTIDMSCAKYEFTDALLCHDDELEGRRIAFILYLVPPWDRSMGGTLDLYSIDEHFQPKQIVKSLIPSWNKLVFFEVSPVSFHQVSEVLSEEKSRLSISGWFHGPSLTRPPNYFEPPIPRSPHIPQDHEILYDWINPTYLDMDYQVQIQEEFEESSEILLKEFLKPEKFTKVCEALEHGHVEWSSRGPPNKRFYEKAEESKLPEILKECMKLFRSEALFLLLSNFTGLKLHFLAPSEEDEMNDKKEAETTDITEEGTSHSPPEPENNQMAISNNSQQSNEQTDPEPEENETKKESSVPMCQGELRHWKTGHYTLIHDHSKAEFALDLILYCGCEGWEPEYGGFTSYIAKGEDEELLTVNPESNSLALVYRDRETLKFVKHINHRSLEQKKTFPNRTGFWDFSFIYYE
Description: RapidFire integrator software (Agilent). Percent conversion was calculated in Excel, and IC50 curves were generated using Prism v. 7.0 (GraphPad).
Differential Scanning Fluorimetry (DSF) Assays
Assays consisted of enzyme (2 µM), inhibitor (200 µM), MnCl2 (50 µM), and SYPRO Orange (1:5000 dilution), all prepared in 50 mM HEPES, pH 7.5. Assays were conducted using white 96-well RT-PCR plates. An Opticon thermal cycler (MJ Research Inc) was used to control temperature and measure fluorescence. Data were processed using the OpticonMONITOR Analysis Software, while curve fitting was performed in Prism […]
Stable small-molecule inhibitor conformations were investigated using the MM2 force field method in ChemBio3D 11.0 (PerkinElmer Informatics). Protein structures were aligned using PyMOL version 2.0 (Schrödinger, LLC). The small-molecule inhibitors were then modelled into the protein active sites, overlaying them with the already contained inhibitor, if applicable (e.g., FG2216 with PHD2, PDB 3HQU; N-oxalylglycine with OGFOD1, PDB 4NHX). […]
CPMG Binding Experiments: Binding of the inhibitors to the proteins was monitored using Carr-Purcell-Meiboom-Gill (CPMG)-edited 1H spectra. […]
Competition Experiments by 2OG Displacement: 2OG displacement assays[12] were performed using CPMG-edited 1H spectra. […] The 2OG methylene resonance at 2.35 ppm was monitored. […]

| SMILES | cell permeability, in words [1] | predicted blood-brain barrier permeability, in words ([1]; listed as CCT4) | Papp [2] | binding to OGFOD1 by 1H CPMG NMR, in words ([3]; listed as CCT4) | predicted blood-brain barrier permeability, in words ([1]; listed as CCT3) | binding to OGFOD1 by 1H CPMG NMR, in words ([3]; listed as CCT3) |
| --- | --- | --- | --- | --- | --- | --- |
| Cn1c(O)c(C(=O)CCc2cccs2)c(=O)n(C)c1=O [compound 42] | good cell permeability properties | brain uptake is likely; also recorded: predicted to be permeable to the blood brain barrier | 62.7 ×10⁻⁶ cm/s | strong binding; also recorded: strongly bind to OGFOD1 |  |  |
| Cn1c(O)c(C(=O)CCc2ccccc2)c(=O)n(C)c1=O [compound 26] | good cell permeability properties |  | 58.5 ×10⁻⁶ cm/s |  | brain uptake is likely; also recorded: predicted to be permeable to the blood brain barrier | strong binding; also recorded: strongly bind to OGFOD1 |
